Measurements published in US7691985B2, “Skeletal-targeted radiation to treat bone-associated pathologies” (priority 1999, dated 2010).

Columns and labels:
multiple myeloma [1] = conditions: 140 mg/m^2 of body-surface area intravenously; cited from earlier work
multiple myeloma [2] = test: Single patient: 40 Gy ^153Sm-EDTMP, melphalan 200 mg/m^2 (Example 14); format: in vivo, human; conditions: present tense
Experimental: The patient, a person with an original diagnosis of multiple myeloma and diagnosed with primary refractory disease, is given a trace dose of ^153Sm-EDTMP, and the 24 hr whole body uptake is calculated. Based on dosimetry calculations a therapeutic dose is designed to deliver 40 Gy to the marrow. After the level of ^153Sm in the patient fell to ≦3.6 mCi, the patient receives a dose of 200 mg/m^2 of melphalan (I.V.). The patient's stem cells are reinfused two days after the melphalan, with G-CSF and antibiotics, as needed.

[3] = ^153Sm-EDTMP 30-50 Gy with melphalan up to 200 mg/m^2, response and urinary tract side effects; format: in vivo; conditions: 30-50 Gy with melphalan as high as 200 mg/m^2
[4] = system: rats inoculated with murine myeloma cells; conditions: used with melphalan, followed by bone marrow transplant; cited from earlier work
[5] = Stability of ^166Ho-DOTMP with and without stabilizer: radiochemical purity by ITLC, CEC, HPLC (Example 15); format: physicochemical
Experimental: Samples of ^166Ho-DOTMP were prepared according to the procedure in Example 1 using ascorbic acid, 55 mg/mL, as the stabilizer. Identical samples were prepared without ascorbic acid. The solutions were analyzed for radiochemical purity after 1 hour, 6 hours, 10 hours, 24 hours, and 48 hours, using Instant Thin Layer Chromatography (ILTC), Cation Exchange Chromatography (CEC) and High Performance Liquid Chromatography (HPLC).

[6] = Biodistribution study of ^166Ho-DOTMP in rats (Example 16); format: in vivo, Sprague Dawley rats; conditions: rat, i.v.
Experimental: Sprague Dawley (S. D.) rats were injected intravenously (inj. i.v.) with a solution of ^166Ho-DOTMP (“Ho-DO”) containing ascorbic acid (asc) as a stabilizer. The animals were sacrificed and organs excised and counted in a radioactive well counter after decay to appropriate levels. Bone (femur) samples were counted and converted to a total bone percent injected dose using a factor of 25 times femur percent.
A second group of Sprague Dawley rats were injected intravenously with a solution of ^166Ho-DOTMP without having the stabilizer. The animals were sacrificed and organs excised and counted in a radioactive well counter after decay to appropriate levels. Bone (femur) samples were counted and converted to a total bone percent injected dose using a factor of 25 times femur percent.
FIG. 2 illustrates the data uptake base on the % injection dose. FIG. 3 illustrates the data uptake base on the % injection dose per gram(mass). FIG. 4 illustrates the data uptake base on the tissue/blood ratio. Abbreviations: Blo=blood; Tai=tail; Lun=lung; Liv=liver; Spl=spleen; Sto=stomach; Kid=kidneys; Int=intestines; Bon=bone; SD=standard deviation.

[7] = 40 Gy to marrow, melphalan 200 mg/m^2, one patient

In the case of `N[C@@H](Cc1ccc(N(CCCl)CCCl)cc1)C(=O)O` [melphalan, L-phenylalanine, 4-[bis(2-chloroethyl)amino]-], the “patients with partial or complete remissions” value (multiple myeloma [1]) is listed as “about 40%”.

In the case of `O=P([O-])(O)CN(CCN(CP(=O)([O-])O)CP(=O)(O)O)CP(=O)([O-])O.[153Sm+3]` [^153Sm-EDTMP], the “days post stem cell transplant to neutrophil engraftment (ANC >500)” value (multiple myeloma [2]; [7]) is reported as “Fourteen”, the “days post transplant to platelet engraftment (>20,000)” value (multiple myeloma [2]; [7]) is reported as “twenty” and the response (multiple myeloma [2]; five months post treatment, one patient) is reported as “complete remission”. The total response rates [3] was > 90%, the “urinary tract side effects” value [3] was “without significant urinary tract side effects” and the survival [4] was “improves survival”.

In the case of `O=P([O-])(O)CN1CCN(CP(=O)([O-])O)CCN(CP(=O)(O)O)CCN(CP(=O)([O-])O)CC1.[166Ho+3]` [Ho-DO only], the “radiochemical purity, CEC” value ([5]; 1 hr) is reported as 99.0, the “radiochemical purity, HPLC” value ([5]; 1 hr) is reported as 100 and the “radiochemical purity, ITLC” value ([5]; 1 hr) is reported as 99.2. The “radiochemical purity, CEC” value ([5]; 6 hrs) was 97.8, the “radiochemical purity, HPLC” value ([5]; 6 hrs) was 95.4 and the “radiochemical purity, ITLC” value ([5]; 6 hrs) was 98.1. For the same compound, the “radiochemical purity, CEC” value ([5]; 10 hrs) was 97.8, the “radiochemical purity, HPLC” value ([5]; 10 hrs) was 94.9 and the “radiochemical purity, ITLC” value ([5]; 10 hrs) was 97.5. For the same compound, the “radiochemical purity, CEC” value ([5]; 24 hrs) was 97.2, the “radiochemical purity, HPLC” value ([5]; 24 hrs) was 85.8 and the “radiochemical purity, ITLC” value ([5]; 24 hrs) was 97.6. The “radiochemical purity, CEC” value ([5]; 48 hrs) was 97.1, the “radiochemical purity, ITLC” value ([5]; 48 hrs) was 96.5 and the “Percent Injection Dose, Blood” value [6] was 0.29 Percent Injection Dose. The “Percent Injection Dose, Intestine” value [6] was 3.81 Percent Injection Dose, the “Percent Injection Dose, Kidney” value [6] was 0.72 Percent Injection Dose and the “Percent Injection Dose, Liver” value [6] was 2.40 Percent Injection Dose. For the same compound, the “Percent Injection Dose, Lung” value [6] was 0.00 Percent Injection Dose, the “Percent Injection Dose, Spleen” value [6] was 0.56 Percent Injection Dose and the “Percent Injection Dose, Stomach” value [6] was 0.20 Percent Injection Dose. The “Percent Injection Dose, Tail” value [6] was 3.21 Percent Injection Dose, the “Percent Injection Dose/Gram, Blood” value [6] was 0.02 Percent Injection Dose/Gram and the “Percent Injection Dose/Gram, Intestine” value [6] was 0.23 Percent Injection Dose/Gram. For the same compound, the “Percent Injection Dose/Gram, Kidney” value [6] was 0.38 Percent Injection Dose/Gram, the “Percent Injection Dose/Gram, Liver” value [6] was 0.31 Percent Injection Dose/Gram and the “Percent Injection Dose/Gram, Lung” value [6] was 0.04 Percent Injection Dose/Gram. For the same compound, the “Percent Injection Dose/Gram, Spleen” value [6] was 1.03 Percent Injection Dose/Gram, the “Percent Injection Dose/Gram, Stomach” value [6] was 0.05 Percent Injection Dose/Gram and the “Percent Injection Dose/Gram, Tail” value [6] was 0.51 Percent Injection Dose/Gram. For the same compound, the “Tissue/Blood Ratio, Blood” value [6] was 1.00, the “Tissue/Blood Ratio, Bone” value [6] was 296.80 and the “Tissue/Blood Ratio, Intestine” value [6] was 13.80. The “Tissue/Blood Ratio, Kidney” value [6] was 22.84, the “Tissue/Blood Ratio, Liver” value [6] was 18.90 and the “Tissue/Blood Ratio, Lung” value [6] was 2.34. The “Tissue/Blood Ratio, Spleen” value [6] was 62.09, the “Tissue/Blood Ratio, Stomach” value [6] was 3.24 and the “Tissue/Blood Ratio, Tail” value [6] was 31.33. For the same compound, the “Percent Injection Dose/Gram, Bone” value ([6]; femur) was 4.84 Percent Injection Dose/Gram and the “Percent Injection Dose, Bone” value ([6]; total bone = 25 times femur percent) was 50.05 Percent Injection Dose.
